Experiments:
Assay type in all cases: biochemical
GST-PLK1 = GST-PLK1 (Homo sapiens, UniProt P53350); test: PLK TR-FRET peptide assay, PLK1; conditions: read-out: Plk1 IC50
GST-PLK2 = molecular target: T1, GST-PLK2 (Homo sapiens, UniProt Q9NYY3); test: PLK TR-FRET peptide assay, PLK2; conditions: for IC50: PLK TR-FRET peptide assay, GST-PLK2, read-out: Plk2 IC50
T1 construct: purchased CarnaBio

GST-PLK3 = molecular target: T2, GST-PLK3 (Homo sapiens, UniProt Q9H4B4); test: PLK TR-FRET peptide assay, PLK3; conditions: PLK TR-FRET peptide assay, GST-PLK3; read-out: Plk3 IC50
T2 construct: purchased CarnaBio
T2 sequence (Q9H4B4 whole entry): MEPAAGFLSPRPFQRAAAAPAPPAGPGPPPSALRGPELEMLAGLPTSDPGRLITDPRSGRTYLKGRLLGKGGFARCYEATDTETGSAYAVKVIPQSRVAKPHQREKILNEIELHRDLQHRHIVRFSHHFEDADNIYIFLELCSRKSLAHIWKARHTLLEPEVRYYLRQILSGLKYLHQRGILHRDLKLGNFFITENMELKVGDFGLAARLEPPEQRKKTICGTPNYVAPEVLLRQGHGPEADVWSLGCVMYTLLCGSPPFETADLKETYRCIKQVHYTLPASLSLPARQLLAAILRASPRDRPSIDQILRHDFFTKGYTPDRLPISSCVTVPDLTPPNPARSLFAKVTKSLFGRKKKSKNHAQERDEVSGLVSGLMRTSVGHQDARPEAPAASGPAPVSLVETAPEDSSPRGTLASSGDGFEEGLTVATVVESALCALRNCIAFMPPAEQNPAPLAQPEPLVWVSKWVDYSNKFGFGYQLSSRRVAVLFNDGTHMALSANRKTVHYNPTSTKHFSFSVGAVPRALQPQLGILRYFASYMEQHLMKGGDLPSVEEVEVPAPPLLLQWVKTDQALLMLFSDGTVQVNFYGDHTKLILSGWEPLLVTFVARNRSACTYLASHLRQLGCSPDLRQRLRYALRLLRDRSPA

T1 sequence (Q9NYY3 whole entry): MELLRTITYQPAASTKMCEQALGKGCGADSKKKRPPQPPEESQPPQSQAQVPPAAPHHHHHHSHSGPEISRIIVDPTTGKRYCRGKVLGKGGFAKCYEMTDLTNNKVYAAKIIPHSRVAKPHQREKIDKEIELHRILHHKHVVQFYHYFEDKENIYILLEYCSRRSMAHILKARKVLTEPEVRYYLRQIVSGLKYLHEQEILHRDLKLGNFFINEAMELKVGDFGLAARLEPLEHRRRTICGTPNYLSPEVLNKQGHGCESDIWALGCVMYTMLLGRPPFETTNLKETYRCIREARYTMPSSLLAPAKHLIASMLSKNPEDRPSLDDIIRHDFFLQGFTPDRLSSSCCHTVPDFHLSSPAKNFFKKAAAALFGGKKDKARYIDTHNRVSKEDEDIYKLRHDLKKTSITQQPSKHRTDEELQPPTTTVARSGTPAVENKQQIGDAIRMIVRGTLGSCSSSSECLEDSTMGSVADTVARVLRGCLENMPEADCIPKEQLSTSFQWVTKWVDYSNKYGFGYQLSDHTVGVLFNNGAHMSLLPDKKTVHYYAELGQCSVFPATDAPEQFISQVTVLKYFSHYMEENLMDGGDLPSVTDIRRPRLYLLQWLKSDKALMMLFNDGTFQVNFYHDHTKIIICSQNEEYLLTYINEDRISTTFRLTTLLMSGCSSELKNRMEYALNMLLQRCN
Sequence of GST-PLK1 (P53350 whole entry): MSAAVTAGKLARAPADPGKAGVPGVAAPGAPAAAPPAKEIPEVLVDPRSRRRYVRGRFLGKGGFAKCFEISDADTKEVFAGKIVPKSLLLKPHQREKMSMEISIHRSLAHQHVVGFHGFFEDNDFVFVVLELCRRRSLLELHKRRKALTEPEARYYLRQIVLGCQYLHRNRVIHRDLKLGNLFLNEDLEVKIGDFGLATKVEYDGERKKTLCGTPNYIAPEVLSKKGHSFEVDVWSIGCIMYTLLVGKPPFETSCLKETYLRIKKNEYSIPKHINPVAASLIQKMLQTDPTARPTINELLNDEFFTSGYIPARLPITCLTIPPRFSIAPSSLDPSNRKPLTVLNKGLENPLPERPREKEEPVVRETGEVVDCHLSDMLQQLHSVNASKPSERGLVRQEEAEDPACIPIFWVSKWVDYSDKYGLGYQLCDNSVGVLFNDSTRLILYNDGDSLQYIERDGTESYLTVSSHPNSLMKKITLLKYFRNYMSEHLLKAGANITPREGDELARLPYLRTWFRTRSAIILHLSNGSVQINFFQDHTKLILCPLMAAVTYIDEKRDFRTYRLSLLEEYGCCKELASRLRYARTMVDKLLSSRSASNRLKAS

IC50 (GST-PLK1) [µM]	IC50 (GST-PLK2) [µM]	IC50 (GST-PLK3) [µM]	PLK2 activity relative to the opposite enantiomer / other isomer (GST-PLK2; comparison of resolved enantiomers, used to assign absolute configuration)	Structure (SMILES)
> 50	10 to 50	> 50		CCC1C(=O)N(C)c2cnc(-n3ccnc3-c3ccccc3)nc2N1NC(=O)OC(C)(C)C (stereo not shown) [Example 275, tert-butyl 7-ethyl-5-methyl-6-oxo-2-(2-phenyl-1H-imidazol-1-yl)-6,7-dihydropteridin-8(5H)-ylcarbamate]
> 50	10 to 50	> 50		CC[C@]12CN(C)CCN1c1nc(-n3ccnc3-c3ccccc3)ncc1N(C)C2=O [Example 375, (R)-6a-ethyl-5,8-dimethyl-2-(2-phenyl-1H-imidazol-1-yl)-7,8,9,10-tetrahydro-5H-pyrazino[2,1-h]pteridin-6(6aH)-one]
1 to 10	< 1	> 50		CC[C@@H]1C(=O)N(C)c2cnc(-n3ccnc3-c3cncnc3)nc2N1C1CCC1 [Example 176, (R)-8-cyclobutyl-7-ethyl-5-methyl-2-(2-(pyrimidin-5-yl)-1H-imidazol-1-yl)-7,8-dihydropteridin-6(5H)-one]
1 to 10	< 1	10 to 50		CC[C@@H]1C(=O)N(C)c2cnc(-n3ccnc3-c3ncccn3)nc2N1C(C)C [Example 148, (R)-7-ethyl-8-isopropyl-5-methyl-2-(2-(pyrimidin-2-yl)-1H-imidazol-1-yl)-7,8-dihydropteridin-6(5H)-one]
< 1	< 1	< 1		CC[C@@H]1CC[C@@]2(CC)C(=O)N(C)c3cnc(-n4ccnc4-c4ccccc4)nc3N12 [Example 309, (6aS,9R)-6a,9-diethyl-5-methyl-2-(2-phenyl-1H-imidazol-1-yl)-6a,7,8,9-tetrahydropyrrolo[2,1-h]pteridin-6(5H)-one]
10 to 50	< 1	> 50		CC[C@@H]1C(=O)N(C)c2cnc(-n3ccnc3-c3cccnn3)nc2N1C(C)C [Example 152, (R)-7-ethyl-8-isopropyl-5-methyl-2-(2-(pyridazin-3-yl)-1H-imidazol-1-yl)-7,8-dihydropteridin-6(5H)-one]
> 50	> 50	> 50		CC[C@]12COCCN1c1nc(-c3cnoc3-c3ccccc3)ncc1N(C)C2=O [Example 414, (R)-6a-ethyl-5-methyl-2-(5-phenylisoxazol-4-yl)-6a,7,9,10-tetrahydro-[1,4]oxazino[3,4-h]pteridin-6(5H)-one]
1 to 10	< 1	1 to 10		CC[C@@H]1C(=O)N(C)c2cnc(-c3scnc3-c3ccc(F)cc3)nc2N1C(C)C [Example 319, (R)-7-ethyl-2-(4-(4-fluorophenyl)thiazol-5-yl)-8-isopropyl-5-methyl-7,8-dihydropteridin-6(5H)-one]
> 50	1 to 10	> 50		CCC1C(=O)N(C)c2cnc(-n3ccnc3)nc2N1c1cn[nH]c1 (stereo not shown) [Example 343, 7-ethyl-2-(1H-imidazol-1-yl)-5-methyl-8-(1H-pyrazol-4-yl)-7,8-dihydropteridin-6(5H)-one]
< 1	< 1	1 to 10		CC[C@@]12COCCN1c1nc(-c3ccncc3-c3ccccc3)ncc1N(C)C2=O [Example 395]
< 1	< 1	1 to 10		CC[C@@H]1C(=O)N(C)c2cnc(-n3cnc(-c4cscn4)c3)nc2N1C1CCCC1 [Example 54, (R)-8-cyclopentyl-7-ethyl-5-methyl-2-(4-(thiazol-4-yl)-1H-imidazol-1-yl)-7,8-dihydropteridin-6(5H)-one]
< 1	1 to 10	1 to 10		CC[C@@H]1C(=O)N(C)c2cnc(-n3cnc(C(=O)OC)c3)nc2N1C1CCCC1 [Example 38, (R)-methyl 1-(8-cyclopentyl-7-ethyl-5-methyl-6-oxo-5,6,7,8-tetrahydropteridin-2-yl)-1H-imidazole-4-carboxylate]
> 50	< 1	10 to 50	more active compound	CC[C@@]12COCCN1c1nc(-c3cn[nH]c3-c3nccs3)ncc1N(C)C2=O [Example 344, (S)-6a-ethyl-5-methyl-2-(5-(thiazol-2-yl)-1H-pyrazol-4-yl)-6a,7,9,10-tetrahydro-[1,4]oxazino[3,4-h]pteridin-6(5H)-one]
10 to 50	< 1	10 to 50		CC[C@@H]1C(=O)N(C)c2cnc(-n3ccnc3-c3cncnc3)nc2N1C(C)C [Example 149, (R)-7-ethyl-8-isopropyl-5-methyl-2-(2-(pyrimidin-5-yl)-1H-imidazol-1-yl)-7,8-dihydropteridin-6(5H)-one]
> 50	1 to 10	> 50		CC[C@@]12COCCN1c1nc(-c3snnc3-c3ccc(F)cn3)ncc1N(C)C2=O [Example 415, (S)-6a-ethyl-2-(4-(5-fluoropyridin-2-yl)-1,2,3-thiadiazol-5-yl)-5-methyl-6a,7,9,10-tetrahydro-[1,4]oxazino[3,4-h]pteridin-6(5H)-one]
> 50	> 50	> 50		CC[C@]12COCCN1c1nc(-c3snnc3-c3ccc(F)cc3F)ncc1N(C)C2=O [Example 398, (R)-2-(4-(2,4-difluorophenyl)-1,2,3-thiadiazol-5-yl)-6a-ethyl-5-methyl-6a,7,9,10-tetrahydro-[1,4]oxazino[3,4-h]pteridin-6(5H)-one]
1 to 10	< 1	10 to 50		CC[C@@H]1C(=O)N(C)c2cnc(-n3ccnc3N3CCOC3=O)nc2N1C1CCCC1 [Example 78, (R)-3-(1-(8-cyclopentyl-7-ethyl-5-methyl-6-oxo-5,6,7,8-tetrahydropteridin-2-yl)-1H-imidazol-2-yl)oxazolidin-2-one]

Structure (SMILES)	IC50 (GST-PLK1) [µM]	IC50 (GST-PLK2) [µM]	IC50 (GST-PLK3) [µM]	PLK2 activity relative to the opposite enantiomer / other isomer (GST-PLK2; comparison of resolved enantiomers, used to assign absolute configuration)
CC[C@@H]1C(=O)N(C)c2cnc(-n3ccnc3Br)nc2N1C1CCCC1 [Example 65, (R)-2-(2-bromo-1H-imidazol-1-yl)-8-cyclopentyl-7-ethyl-5-methyl-7,8-dihydropteridin-6(5H)-one]	< 1	< 1	10 to 50	
CCC1C(=O)N(C)c2cnc(-n3ccnc3-c3ccc(F)cc3)nc2N1c1cnn(COCC[Si](C)(C)C)c1 (stereo not shown) [Example 342, 7-ethyl-2-(2-(4-fluorophenyl)-1H-imidazol-1-yl)-5-methyl-8-(1-((2-(trimethylsilyl)ethoxy)methyl)-1H-pyrazol-4-yl)-7,8-dihydropteridin-6(5H)-one]	10 to 50	< 1	1 to 10	
CC[C@@H]1C(=O)N(C)c2cnc(-c3cncnc3-c3ccccc3)nc2N1C1CCCC1 [Example 132, (R)-8-cyclopentyl-7-ethyl-5-methyl-2-(4-phenylpyrimidin-5-yl)-7,8-dihydropteridin-6(5H)-one]	< 1	< 1	< 1	
CC[C@@H]1C(=O)N(C)c2cnc(-n3nccc3-c3ccccc3)nc2N1C(C)C [Example 188, (R)-7-ethyl-8-isopropyl-5-methyl-2-(5-phenyl-1H-pyrazol-1-yl)-7,8-dihydropteridin-6(5H)-one]	< 1	< 1	1 to 10	
CC[C@@H]1C(=O)N(C)c2cnc(-n3ncnc3-c3ccccc3)nc2N1C(C)C [Example 195, (R)-7-ethyl-8-isopropyl-5-methyl-2-(5-phenyl-1H-1,2,4-triazol-1-yl)-7,8-dihydropteridin-6(5H)-one]	< 1	< 1	< 1	

Reference: patent US8445503B2, “Inhibitors of polo-like kinase” (Elan Pharmaceuticals, Inc., priority 2009, dated 2013)
